Patent publication US9255295B2, “Method for evaluating the sensitizing potential of a test compound” (IMMUNOSEARCH, priority 2010, dated 2016)

Test system: genes specific for sensitization (BRAK, CTSS, DAPK2, FABP4, HSP27, IL18, HSP90, IL1R2, TPSAB1, CXCR1, DEFB1, DHFR, EHF, IVL, KRT4, MELANA, NGAL, PDZK1IP1, PI3 …)
Assay: Expression of the other (non-ARE) sensitization-specific genes in EPISKIN reconstructed skin (quantitative RT-PCR);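 for CTSS NUMBER OF GENES grade: grade scored against expression in the control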;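 for CXCR1 NUMBER OF GENES grade: grade scored against expression in the control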;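 for DAPK2 NUMBER OF GENES grade: grade scored against expression in the control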
Assay type: cell-based, human

Question: What does the source list for `O=CC=O` [Glyoxal]?
Answer: BRAK NUMBER OF GENES grade (0.1%): 0 (if this expression is lower, the grade is 0); CTSS NUMBER OF GENES grade (0.1%): 0 (if this expression is lower, the grade is 0); CXCR1 NUMBER OF GENES grade (0.1%): 0 (if this expression is lower, the grade is 0); DAPK2 NUMBER OF GENES grade (0.1%): 0 (if this expression is lower, the grade is 0); DEFB1 NUMBER OF GENES grade (0.1%): 0 (if this expression is lower, the grade is 0); DHFR NUMBER OF GENES grade (0.1%): 0 (if this expression is lower, the grade is 0); EHF NUMBER OF GENES grade (0.1%): 0 (if this expression is lower, the grade is 0); FABP4 NUMBER OF GENES grade (0.1%): 0 (if this expression is lower, the grade is 0); HSP27 NUMBER OF GENES grade (0.1%): 0 (if this expression is lower, the grade is 0); HSP90 NUMBER OF GENES grade (0.1%): 0 (if this expression is lower, the grade is 0); IL18 NUMBER OF GENES grade (0.1%): 0 (if this expression is lower, the grade is 0); IVL NUMBER OF GENES grade (0.1%): 0 (if this expression is lower, the grade is 0); KRT4 NUMBER OF GENES grade (0.1%): 0 (if this expression is lower, the grade is 0); MELANA NUMBER OF GENES grade (0.1%): 0 (if this expression is lower, the grade is 0); NGAL NUMBER OF GENES grade (0.1%): 0 (if this expression is lower, the grade is 0); P13 NUMBER OF GENES grade (0.1%): 0 (if this expression is lower, the grade is 0); PDZK1iP1 NUMBER OF GENES grade (0.1%): 0 (if this expression is lower, the grade is 0); SENS >1.3 (number of genes) (0.1%): 0; SERPINB3 NUMBER OF GENES grade (0.1%): 0 (if this expression is lower, the grade is 0); TOTAL SENS (number of genes) (0.1%): 0; BRAK expression (0.1%, compared to the control): 0.6; CTSS expression (0.1%, compared to the control): 1.0; CXCR1 expression (0.1%, compared to the control): 1.1; DAPK2 expression (0.1%, compared to the control): 0.9; DEFB1 expression (0.1%, compared to the control): 0.8; DHFR expression (0.1%, compared to the control): 0.9; EHF expression (0.1%, compared to the control): 0.8; FABP4 expression (0.1%, compared to the control): 0.4; HSP27 expression (0.1%, compared to the control): 0.7; HSP90 expression (0.1%, compared to the control): 1.0; IL18 expression (0.1%, compared to the control): 0.8; IVL expression (0.1%, compared to the control): 0.7; KRT4 expression (0.1%, compared to the control): 0.9; MELANA expression (0.1%, compared to the control): 0.5; NGAL expression (0.1%, compared to the control): 0.7; P13 expression (0.1%, compared to the control): 0.8; PDZK1iP1 expression (0.1%, compared to the control): 0.9; SERPINB3 expression (0.1%, compared to the control): 1.0; BRAK NUMBER OF GENES grade (1%): 0 (if this expression is lower, the grade is 0); CTSS expression compared to control (1%): 1.3; CTSS grade (NUMBER OF GENES) (1%): 1 (If the expression is greater than 1.3 compared to the control, a grade of 11s given); CXCR1 expression compared to control (1%): 1.6; CXCR1 grade (NUMBER OF GENES) (1%): 1 (If the expression is greater than 1.3 compared to the control, a grade of 11s given); DAPK2 expression compared to control (1%): 0.9; DAPK2 grade (NUMBER OF GENES) (1%): 0 (if this expression is lower, the grade is 0); DEFB1 expression compared to control (1%): 1.4; DEFB1 grade (NUMBER OF GENES) (1%): 1 (If the expression is greater than 1.3 compared to the control, a grade of 11s given); DHFR NUMBER OF GENES grade (1%): 0 (if this expression is lower, the grade is 0); EHF expression compared to control (1%): 0.9; EHF grade (NUMBER OF GENES) (1%): 0 (if this expression is lower, the grade is 0); FABP4 expression compared to control (1%): 0.8; FABP4 grade (NUMBER OF GENES) (1%): 0 (if this expression is lower, the grade is 0); HSP27 expression compared to control (1%): 0.8; HSP27 grade (NUMBER OF GENES) (1%): 0 (if this expression is lower, the grade is 0); HSP90 NUMBER OF GENES grade (1%): 0 (if this expression is lower, the grade is 0); IL18 NUMBER OF GENES grade (1%): 0 (if this expression is lower, the grade is 0); IVL expression compared to control (1%): 1.7; IVL grade (NUMBER OF GENES) (1%): 1 (If the expression is greater than 1.3 compared to the control, a grade of 11s given); KRT4 NUMBER OF GENES grade (1%): 0 (if this expression is lower, the grade is 0); MELANA NUMBER OF GENES grade (1%): 0 (if this expression is lower, the grade is 0); NGAL expression compared to control (1%): 0.6; NGAL grade (NUMBER OF GENES) (1%): 0 (if this expression is lower, the grade is 0); P13 expression compared to control (1%): 1.4; P13 grade (NUMBER OF GENES) (1%): 1 (If the expression is greater than 1.3 compared to the control, a grade of 11s given); PDZK1iP1 NUMBER OF GENES grade (1%): 0 (if this expression is lower, the grade is 0); SENS >1.3 (number of genes) (1%): 6; SERPINB3 NUMBER OF GENES grade (1%): 0 (if this expression is lower, the grade is 0); TOTAL SENS (number of genes) (1%): 6; BRAK expression (1%, compared to the control): 0.5; DHFR expression (1%, compared to the control): 0.9; HSP90 expression (1%, compared to the control): 1.1; IL18 expression (1%, compared to the control): 1.0; KRT4 expression (1%, compared to the control): 0.6; MELANA expression (1%, compared to the control): 1.1; PDZK1iP1 expression (1%, compared to the control): 1.0; SERPINB3 expression (1%, compared to the control): 1.1; BRAK NUMBER OF GENES grade (10%): 0 (if this expression is lower, the grade is 0); CTSS expression compared to control (10%): 2.2; CTSS grade (NUMBER OF GENES) (10%): 1 (If the expression is greater than 1.3 compared to the control, a grade of 11s given); CXCR1 expression compared to control (10%): 1.8; CXCR1 grade (NUMBER OF GENES) (10%): 1 (If the expression is greater than 1.3 compared to the control, a grade of 11s given); DAPK2 expression compared to control (10%): 0.9; DAPK2 grade (NUMBER OF GENES) (10%): 0 (if this expression is lower, the grade is 0); DEFB1 expression compared to control (10%): 1.6; DEFB1 grade (NUMBER OF GENES) (10%): 1 (If the expression is greater than 1.3 compared to the control, a grade of 11s given); DHFR NUMBER OF GENES grade (10%): 0 (if this expression is lower, the grade is 0); EHF expression compared to control (10%): 0.9; EHF grade (NUMBER OF GENES) (10%): 0 (if this expression is lower, the grade is 0); FABP4 expression compared to control (10%): 0.8; FABP4 grade (NUMBER OF GENES) (10%): 0 (if this expression is lower, the grade is 0); HSP27 expression compared to control (10%): 0.8; HSP27 grade (NUMBER OF GENES) (10%): 0 (if this expression is lower, the grade is 0); HSP90 NUMBER OF GENES grade (10%): 1 (If the expression is greater than 1.3 compared to the control, a grade of 11s given); IL18 NUMBER OF GENES grade (10%): 1 (If the expression is greater than 1.3 compared to the control, a grade of 11s given); IVL expression compared to control (10%): 1.6; IVL grade (NUMBER OF GENES) (10%): 1 (If the expression is greater than 1.3 compared to the control, a grade of 11s given); KRT4 NUMBER OF GENES grade (10%): 1 (If the expression is greater than 1.3 compared to the control, a grade of 11s given); MELANA NUMBER OF GENES grade (10%): 0 (if this expression is lower, the grade is 0); NGAL expression compared to control (10%): 1.3; NGAL grade (NUMBER OF GENES) (10%): 1 (If the expression is greater than 1.3 compared to the control, a grade of 11s given); P13 expression compared to control (10%): 1.3; P13 grade (NUMBER OF GENES) (10%): 1 (If the expression is greater than 1.3 compared to the control, a grade of 11s given); PDZK1iP1 NUMBER OF GENES grade (10%): 1 (If the expression is greater than 1.3 compared to the control, a grade of 11s given); SENS >1.3 (number of genes) (10%): 13; SERPINB3 NUMBER OF GENES grade (10%): 1 (If the expression is greater than 1.3 compared to the control, a grade of 11s given); TOTAL SENS (number of genes) (10%): 13; BRAK expression (10%, compared to the control): 0.5; DHFR expression (10%, compared to the control): 0.9; HSP90 expression (10%, compared to the control): 1.5; IL18 expression (10%, compared to the control): 1.3; KRT4 expression (10%, compared to the control): 1.4; MELANA expression (10%, compared to the control): 1.1; PDZK1iP1 expression (10%, compared to the control): 1.4; SERPINB3 expression (10%, compared to the control): 1.3; BRAK NUMBER OF GENES grade (50%): 0 (if this expression is lower, the grade is 0); CTSS expression compared to control (50%): 2.7; CTSS grade (NUMBER OF GENES) (50%): 1 (If the expression is greater than 1.3 compared to the control, a grade of 11s given); CXCR1 expression compared to control (50%): 2.7; CXCR1 grade (NUMBER OF GENES) (50%): 1 (If the expression is greater than 1.3 compared to the control, a grade of 11s given); DAPK2 expression compared to control (50%): 0.9; DAPK2 grade (NUMBER OF GENES) (50%): 0 (if this expression is lower, the grade is 0); DEFB1 expression compared to control (50%): 1.6; DEFB1 grade (NUMBER OF GENES) (50%): 1 (If the expression is greater than 1.3 compared to the control, a grade of 11s given); DHFR NUMBER OF GENES grade (50%): 0 (if this expression is lower, the grade is 0); EHF expression compared to control (50%): 0.9; EHF grade (NUMBER OF GENES) (50%): 0 (if this expression is lower, the grade is 0); FABP4 expression compared to control (50%): 0.8; FABP4 grade (NUMBER OF GENES) (50%): 0 (if this expression is lower, the grade is 0); HSP27 expression compared to control (50%): 0.8; HSP27 grade (NUMBER OF GENES) (50%): 0 (if this expression is lower, the grade is 0); HSP90 NUMBER OF GENES grade (50%): 1 (If the expression is greater than 1.3 compared to the control, a grade of 11s given); IL18 NUMBER OF GENES grade (50%): 0 (if this expression is lower, the grade is 0); IVL expression compared to control (50%): 1.5; IVL grade (NUMBER OF GENES) (50%): 1 (If the expression is greater than 1.3 compared to the control, a grade of 11s given); KRT4 NUMBER OF GENES grade (50%): 0 (if this expression is lower, the grade is 0); MELANA NUMBER OF GENES grade (50%): 0 (if this expression is lower, the grade is 0); NGAL expression compared to control (50%): 0.6; NGAL grade (NUMBER OF GENES) (50%): 0 (if this expression is lower, the grade is 0); P13 expression compared to control (50%): 1.4; P13 grade (NUMBER OF GENES) (50%): 1 (If the expression is greater than 1.3 compared to the control, a grade of 11s given); PDZK1iP1 NUMBER OF GENES grade (50%): 0 (if this expression is lower, the grade is 0); SENS >1.3 (number of genes) (50%): 8; SERPINB3 NUMBER OF GENES grade (50%): 1 (If the expression is greater than 1.3 compared to the control, a grade of 11s given); TOTAL SENS (number of genes) (50%): 8; BRAK expression (50%, compared to the control): 0.5; DHFR expression (50%, compared to the control): 0.9; HSP90 expression (50%, compared to the control): 2.0; IL18 expression (50%, compared to the control): 1.0; KRT4 expression (50%, compared to the control): 0.6; MELANA expression (50%, compared to the control): 1.1; PDZK1iP1 expression (50%, compared to the control): 1.0; SERPINB3 expression (50%, compared to the control): 1.7
